By EC50 is commonly meant the midpoint of the concentration-response curve.

The text below walks through data of paper PMC8308830, “Single-Agent and Fixed-Dose Combination HIV-1 Protease Inhibitor Drugs in Fission Yeast (Schizosaccharomyces pombe)” (Pathogens, 2021).

Each structure is given as a SMILES string. Entries after “also recorded” stand apart in the source; their conditions may differ.

For assay [1], the target named is T1, HIV-1 PR (Human immunodeficiency virus type 1 group M subtype B, UniProt P12497). As to the kind of experiment: cell-based. To be noted: for EC50: PR-on RE294 cells, growth (OD650) at 72 h post-gene induction relative to PR-off cells; for decrease of EC50 of formulated drug in comparison with pure compound: fission yeast RE294, formulated drug pill vs pure compound. As to the method: The goal of this experiment was to determine the potency of each PI drug in fission yeast by the determination of EC50. […] Briefly, both HIV-1 PR-suppressing (PR-off) and PR-producing (PR-on) RE294 cells were prepared as described above. The PR-producing cells were added with a PI drug in the final concentration as indicated. Final cellular growth was measured at 72 h post-gene induction.
(A) Pure compound of PI drugs. (B) Formulated PI drug pills. HIV-1 PR gene expression was induced in RE294 cells, as described in Figure 2. […] Cellular growth was measured at 72 h post-gene induction by optical density of 650 nm using a spectrophotometer. EC50 curves were generated by using Prism 8 software showing averages with standard error bars. The measurements were repeated with three different experiments.
Briefly, both HIV-1 PR-suppressing (PR-off) or PR-producing (PR-on) RE294 cells were prepared as described above as control and for testing. The PR-producing cells were added with a PI drug in the final concentration as shown. Final cellular growth was measured at 72 h post-gene induction by optical density of 650 nm using a spectrophotometer.

For the next assay, the system named is HIV. To be noted: human cells, antiviral activity; per-drug references in Table 2; read-out: EC50 in Human Cell; cited from earlier work.
Assay [2] concerns the target T1, HIV-1 PR. To be noted: 150 μM drug; G31 cells; 20 h post-gene induction.
The target of assay [3] is T1, HIV-1 PR. The experiment in a line: Fission yeast colony formation assay, wild-type HIV-1 PR (RE294 strain). It is filed as cell-based. More on the design: HIV-1 PR is a dimeric aspartyl protease that consists of two identical subunits with 99 amino acids; expressed in transfected cells; host or cells: Schizosaccharomyces pombe strain RE294. To be noted: 150 μM drug; PR-on RE294 cells; 4–5 days at 30 °C; pure chemical forms and formulated drug pills. Here is the method: The effect of the above-mentioned FDA-approved PI drugs on fission yeast colony formation was tested in the presence and absence of HIV-1 PR. Specifically, a fission yeast RE294 strain, which carries a single and integrated copy of HIV-1 PR gene in the yeast chromosome, was used in this experiment. One thousand active growing and log-phase RE294 cells were evenly spread and cultured on the six-well agar wells containing the minimal and selective PMG medium in presence of 20 µM of thiamine (PR-off) or absence of thiamine (PR-on) with incubation at 30 °C for 4–5 days. […] To test the effect of a PI drug on the colony formation, 150 μM of each drug was added to the respective agar well in the presence of HIV-1 PR. Since all those drugs were dissolved in dimethyl sulfoxide (DMSO), to test the potential DMSO effect on the yeast colony formation, DMSO in the final concentration of 1% was added to the PR-on well as a mock control (Figure 2A). […]
A modified fission yeast colony-formation assay was used to investigate the effect of the PR gene expression on fission yeast cell proliferation from previously described protocol. […] The inhibitory effect of each FDA PI drug on yeast colony formation was evaluated 4–5 days after plating by comparing the growth of the colonies of the drug-treated wells to that of the mock DMSO controls.

Assay [4] deals with T1, HIV-1 PR. It is filed as cell-based. More on the design: HIV-1 PR is a dimeric aspartyl protease that consists of two identical subunits with 99 amino acids; expressed in transfected cells; host or cells: Schizosaccharomyces pombe strain RE294. The conditions noted are these: 150 μM drug; PR-on RE294 cells; OD650 over 72 h; formulated single-agent and combination drugs.
Setting [5] is: EC50 in Fission Yeast /Pure Compound, pure compound.
[6] abbreviates: EC50 in Fission Yeast /Drug Formulation, compounds in drug pill forms.

Turning to `CC(C)CN(C[C@@H](O)[C@H](Cc1ccccc1)NC(=O)O[C@H]1CCOC1)S(=O)(=O)c1ccc(N)cc1` [APV, Amprenavir], the values for the EC50 at HIV-1 PR [1] (setting [5]) and in the assay with HIV were 55.4 ± 3.18 µM and 0.015 to 0.06 µM, respectively.
Consider `COC(=O)N[C@H](C(=O)N[C@@H](Cc1ccccc1)[C@@H](O)CN(Cc1ccc(-c2ccccn2)cc1)NC(=O)[C@@H](NC(=O)OC)C(C)(C)C)C(C)(C)C` [ATV, Atazanavir], for which the EC50 is 16.3 ± 0.95 µM at HIV-1 PR [1] (setting [6]), 21.08 ± 0.07 µM at HIV-1 PR [1] (setting [5]) and 0.002 to 0.005 µM in the assay on HIV. Besides, the “decrease of EC50 of formulated drug in comparison with pure compound” value (“decrease of EC50 of formulated drug” below) at HIV-1 PR [1] stood at 22.5%.
Take `CC(C)CN(C[C@@H](O)[C@H](Cc1ccccc1)NC(=O)O[C@H]1CO[C@H]2OCC[C@H]21)S(=O)(=O)c1ccc(N)cc1` [DRV, Darunavir]: on HIV-1 PR [1], the “decrease of EC50 of formulated drug” value was found to be 28.5%. Besides, the EC50 in the assay on HIV was 0.001 to 0.01 µM.
The compound `CC(C)CN(C[C@@H](OP(=O)(O)O)[C@H](Cc1ccccc1)NC(=O)O[C@H]1CCOC1)S(=O)(=O)c1ccc(N)cc1` [FPV, Fosamprenavir] gave an EC50 on HIV-1 PR [1] (setting [6]) of more than 150 µM. The “inhibitory activity against the HIV-1 PR in fission yeast” value on HIV-1 PR [1] (wild-type PR, fission yeast) is on record as “no inhibitory activity; also recorded: did not show any inhibitory effect”. For the same compound, at HIV-1 PR [2], the “inhibition of HIV-1 PR proteolytic cleavage of GFP-MA↓CA-Vpr (Vpr pattern vs GFP pattern)” value is “no suppression”. In addition, the “suppression of the inhibitory effect of HIV-1 PR on colony formation” value at HIV-1 PR [3] is listed as “did not suppress”. For the same compound, the “suppression of HIV-1 PR-induced growth arrest, formulated drug pills” value at HIV-1 PR [4] is listed as “did not suppress”.
Take `CC(C)(C)NC(=O)[C@@H]1CN(Cc2cccnc2)CCN1C[C@@H](O)C[C@@H](Cc1ccccc1)C(=O)N[C@H]1c2ccccc2C[C@H]1O` [IDV, Indinavir]: the half-maximal effective concentration (EC50) in the assay with HIV is 0.005 to 0.03 µM.
As to `Cc1cccc(C)c1OCC(=O)N[C@@H](Cc1ccccc1)[C@@H](O)C[C@H](Cc1ccccc1)NC(=O)[C@H](C(C)C)N1CCCNC1=O` [LPV, Lopinavir], in the assay with HIV, the EC50 is 0.004 to 0.011 µM.
Regarding `Cc1c(O)cccc1C(=O)N[C@@H](CSc1ccccc1)[C@H](O)CN1C[C@H]2CCCC[C@H]2C[C@H]1C(=O)NC(C)(C)C` [NFV, Nelfinavir], the figures for the EC50 on HIV-1 PR [1] (setting [5]) and in the assay with HIV were 9.7 ± 0.34 µM and 0.003 to 0.04 µM, respectively.
Regarding `CC(C)c1nc(CN(C)C(=O)N[C@H](C(=O)N[C@@H](Cc2ccccc2)C[C@H](O)[C@H](Cc2ccccc2)NC(=O)OCc2cncs2)C(C)C)cs1` [RTV, Ritonavir], the “decrease of EC50 of formulated drug” value at HIV-1 PR [1] worked out at 38.9%. The EC50 with HIV was 0.04 to 0.1 µM.
On to `CC(C)(C)NC(=O)[C@@H]1C[C@@H]2CCCC[C@@H]2CN1C[C@@H](O)[C@H](Cc1ccccc1)NC(=O)[C@H](CC(N)=O)NC(=O)c1ccc2ccccc2n1` [SQV, Saquinavir], for which the EC50 in the assay on HIV was 0.005 to 0.025 µM.
In the case of `CCC[C@@]1(CCc2ccccc2)CC(O)=C([C@H](CC)c2cccc(NS(=O)(=O)c3ccc(C(F)(F)F)cn3)c2)C(=O)O1` [TPV, Tipranavir], the results for the half-maximal effective concentration (EC50) on HIV-1 PR [1] (setting [5]) and with HIV were 7.06 ± 0.32 µM and 0.03 to 0.07 µM, respectively.
